Entries after “also recorded” stand apart in the source; their conditions may differ. Like-named read-outs stand apart in the source and are kept apart here. Values belong to the compound of their own block, whether it stands above or below them.
Key:
phthalyl amidase [1] = biological target: T1, phthalyl amidase (Xanthobacter agilis, UniProt P0C2Y0); experiment: Influence of effectors and organic solvents on enzyme activity; format: biochemical; conditions: for remaining activity at 1 % / remaining activity at 5 % / remaining activity at 10 %: 20 min, read-out: % Residual enzyme activity
T1 construct: 42-aa signal peptide removed
Description: A typical reaction mixture consisted of 1 ml total volume and contained 0.1 mM III, 0.1 μM phthalyl amidase in 50 mM potassium phosphate buffer (pH 5.5-9.0) at 32° C. for 20 minutes. The reactions were stopped by the addition of 1 ml methanol. After removal of precipitate by centrifugation, an aliquot of the supernatant fraction (typically 30 μ) was monitored for the beta-lactam nucleus and phthalic acid by HPLC using a Zorbax C8 column (0.46×15 cm; MacMod Analytical Inc., Chadds Ford, Pa.). The two reaction products were eluted by a mobile phase constructed as continuous mixed gradients from (a) 1% ACN (acetonitrile)/0.2% TFA (trifluoroacetic acid) and (b) 80% ACN/0.2% TFA as follows: 1) 0% (b), 3 min; 2) 0-50% (b), 0.5 min; 3) 50-100% (b), 3 min; 4) 100% (b), 2.5 min; 5) 100-0% (b), 0.1 min; and 6) 0% (b), 5 min.
The effect of various agents on the enzymatic activity of phthalyl amidase was determined using standard conditions (see Example 5). All agents were tested at 1 mM final concentration unless otherwise indicated.

phthalyl amidase [2] = biological target: T1, phthalyl amidase; experiment: Substrate specificity: chemical structure requirements for enzyme activity; format: biochemical
Description: The activity of phthalyl amidase against 25 compounds was determined. The compounds were divided into beta-lactams (Table 9), phthalyl amides (Table 10), and aromatic ring substituted amides (Table 11). Each reaction mixture (1 ml total volume) contained 2.5 μmol of compound and 0.3 units of enzyme (based on the chromogenic substrate) of the preparative scale purified enzyme, in 50 mM phosphate buffer, pH 8.0. The reactions were conducted at 30° C. Samples of the reaction mixture were taken at various times, and methanol (equal volume) was added to stop the reaction. The samples were examined by HPLC to determine the extent of substrate hydrolysis. The amount of compound hydrolyzed was calculated from a standard curve of the test compound. All substrates were stable in buffer at 30° C. and pH 8.0 in the absence of enzyme for 24 hours.

[3] = agent at 1 mM final concentration, read-out: % of Control Activity
[4] = agent at 1 mM final concentration
[5] = read-out: % of Control Activity

T1 sequence (P0C2Y0 2-453): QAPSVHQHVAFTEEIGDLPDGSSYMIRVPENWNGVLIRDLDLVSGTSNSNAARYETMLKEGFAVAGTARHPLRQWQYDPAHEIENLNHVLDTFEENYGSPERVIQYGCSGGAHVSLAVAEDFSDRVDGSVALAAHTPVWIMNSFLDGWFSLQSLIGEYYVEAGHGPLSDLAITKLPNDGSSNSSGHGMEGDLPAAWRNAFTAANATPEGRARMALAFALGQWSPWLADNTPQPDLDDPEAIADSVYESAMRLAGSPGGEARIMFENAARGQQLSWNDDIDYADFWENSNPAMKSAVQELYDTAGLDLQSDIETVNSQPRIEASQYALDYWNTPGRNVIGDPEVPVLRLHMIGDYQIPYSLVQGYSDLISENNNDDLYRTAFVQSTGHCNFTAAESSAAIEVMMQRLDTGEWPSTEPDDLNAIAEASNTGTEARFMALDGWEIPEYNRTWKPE

remaining activity at 1000 µM (phthalyl amidase [1]; [3]): 100%
Compound: O[C@H](CS)[C@H](O)CS (racemic) [DTT, dithiothreitol]

Compound: Nc1ncnc2c1ncn2[C@@H]1O[C@H](COP(=O)(O)OP(=O)(O)OP(=O)(O)O)[C@@H](O)[C@H]1O [ATP, adenosine 5triphosphate]
remaining activity at 1000 µM (phthalyl amidase [1]; [3]): 96%

Compound: [Ca+2].[Cl-].[Cl-] [CaCl2]
% of Control Activity (phthalyl amidase [1]; [4]): 89%

remaining activity at 1000 µM (phthalyl amidase [1]; [3]): 102%
Compound: CC(C)(COP(=O)(O)OP(=O)(O)OC[C@H]1O[C@@H](n2cnc3c(N)ncnc32)[C@H](O)[C@@H]1OP(=O)(O)O)[C@@H](O)C(=O)NCCC(=O)NCCS [CoASH]

suitability as substrate (in words) (phthalyl amidase [2]; Tables 10 and 11): acceptable
Compound: CCCCCCC(C(=O)O)n1cnc(NC(=O)c2ncccc2C(=O)O)c1 (stereo not drawn) [Compound XX]

Compound: [Cl][Cu][Cl] [CuCl2]
effect on enzyme activity (in words) (phthalyl amidase [1]; 1 mM unless otherwise indicated, iodoacetic acid 10 mM, listed as Cu^++): significantly inhibited
effect on enzyme activity (in words) (phthalyl amidase [1]; 1 mM unless otherwise indicated, iodoacetic acid 10 mM, listed as copper ions): significantly reduced
% of Control Activity (phthalyl amidase [1]; [4]): 36%

Compound: C[S+](C)[O-] [DMSO, dimethyl sulfoxide]
remaining activity at 1 % (phthalyl amidase [1]; solvent 1.0%): 101%
remaining activity at 5 % (phthalyl amidase [1]; solvent 5.0%): 80%
remaining activity at 10 % (phthalyl amidase [1]; solvent 10.0%): 71%

Compound: O=C(O)c1cc(SSc2ccc([N+](=O)[O-])c(C(=O)O)c2)ccc1[N+](=O)[O-] [DTNB, dithionitrobenzoate]
remaining activity at 1000 µM (phthalyl amidase [1]; [3]): 98%

Compound: O=C(O)CN(CCN(CC(=O)O)CC(=O)O)CC(=O)O [EDTA]
effect on enzyme activity (in words) (phthalyl amidase [1]): little or no effect
remaining activity at 1000 µM (phthalyl amidase [1]; [5]): 103%

Compound: CCO [Ethanol]
remaining activity at 1 % (phthalyl amidase [1]): 99%
remaining activity at 5 % (phthalyl amidase [1]): 85%
remaining activity at 10 % (phthalyl amidase [1]): 45%

Compound: Cc1cc2nc3c(=O)[nH]c(=O)nc-3n(C[C@H](O)[C@H](O)[C@H](O)COP(=O)(O)OP(=O)(O)OC[C@H]3O[C@@H](n4cnc5c(N)ncnc54)[C@H](O)[C@@H]3O)c2cc1C [FAD, flavin adenine dinucleotide]
remaining activity at 1000 µM (phthalyl amidase [1]; [3]): 101%

Compound: [Cl][Fe]([Cl])[Cl] [FeCl3]
% of Control Activity (phthalyl amidase [1]; [4]): 96%

remaining activity at 1 % (phthalyl amidase [1]; solvent 1.0%): 100%
remaining activity at 5 % (phthalyl amidase [1]; solvent 5.0%): 94%
remaining activity at 10 % (phthalyl amidase [1]; solvent 10.0%): 85%
% Residual enzyme activity (phthalyl amidase [1]; solvent 10.0%): least amount of inhibition
Compound: OCC(O)CO [Glycerol]

Relative Activity (phthalyl amidase [2]; Table 9 beta-lactams, III = 100, 2.5 μmol compound, 0.3 units enzyme, 50 mM phosphate pH 8.0, 30° C.): 0
Compound: O=C(O)CN1C(=O)C(NC(=O)COc2ccccc2)C1CCc1ccco1 (stereo not drawn) [IV]

Compound: O=C(O)CI [Iodoacetate]
effect on enzyme activity (in words) (phthalyl amidase [1]): significantly reduced; also recorded: significantly inhibited
remaining activity at 1000 µM (phthalyl amidase [1]; [5]): 91%
remaining activity at 10000 µM (phthalyl amidase [1]; [5]): 46%

Compound: [Cl-].[K+] [KCl]
% of Control Activity (phthalyl amidase [1]; [4]): 100%

remaining activity at 1000 µM (phthalyl amidase [1]; [3]): 105%
Compound: OCCS [Mercaptoethanol]

Compound: CO [Methanol]
remaining activity at 1 % (phthalyl amidase [1]; solvent 1.0%): 100%
remaining activity at 5 % (phthalyl amidase [1]; solvent 5.0%): 90%
remaining activity at 10 % (phthalyl amidase [1]; solvent 10.0%): 69%

Compound: [Cl][Mn][Cl] [MnCl2]
% of Control Activity (phthalyl amidase [1]; [4]): 84%

Compound: NC(=O)c1ccc[n+]([C@@H]2O[C@H](COP(=O)([O-])OP(=O)(O)OC[C@H]3O[C@@H](n4cnc5c(N)ncnc54)[C@H](O)[C@@H]3O)[C@@H](O)[C@H]2O)c1 [NAD, nicotinamide adenine nucleotide]
remaining activity at 1000 µM (phthalyl amidase [1]; [3]): 101%

remaining activity at 1000 µM (phthalyl amidase [1]; [3]): 96%
Compound: NC(=O)C1=CN([C@@H]2O[C@H](COP(=O)(O)OP(=O)(O)OC[C@H]3O[C@@H](n4cnc5c(N)ncnc54)[C@H](O)[C@@H]3O)[C@@H](O)[C@H]2O)C=CC1 [NADH]

Compound: NC(=O)c1ccc[n+]([C@@H]2O[C@H](COP(=O)([O-])OP(=O)(O)OC[C@H]3O[C@@H](n4cnc5c(N)ncnc54)[C@H](OP(=O)(O)O)[C@@H]3O)[C@@H](O)[C@H]2O)c1 [NADP, nicotinamide adenine dinucleotide phosphate]
remaining activity at 1000 µM (phthalyl amidase [1]; [3]): 99%

From patent US5451522A, “Genes encoding and method of expressing an enzyme: phthalyl amidase” (priority 1994, dated 1995)
